Experimental data reported in patent US20050197350A1, “Novel quinoline, tetrahydroquinazoline, and pyrimidine derivatives and methods of treatment related to the use thereof” (TAISHO PHARMACEUTICAL CO., LTD., priority 2003, published 2005).
Counter-ions that a name gives are not always drawn.

biological target: MCH receptor (Homo sapiens, UniProt Q99705); assay: High throughput functional screening FLIPR/FDSS6000 (intracellular Ca2+ evoked by MCH); assay type: cell-based; details: FLIPR/FDSS, antagonist activity vs 50 nM MCH; class by percent of control at 10^−7 M or IC50; table after the classification; read-out: class
Method in brief: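 For antagonist testing, compound-treated cells (30 min, 37 °C) were stimulated with 50 nM MCH and intracellular Ca2+ followed by Fluo4 fluorescence on FLIPR/FDSS6000. Receptor was a constitutively active, non-endogenous MCH receptor; dye loading 4 μM Fluo4-AM, 1 h, 37 °C.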

| IC50 [nM] | SMILES |
| --- | --- |
| < 50 | O=C(N[C@H]1CC[C@@H](Nc2cc(Cl)c3ccccc3n2)CC1)c1ccc(F)c(F)c1 [Example 3117, N-[cis-4-(4-Chloro-quinolin-2-ylamino)-cyclohexyl]-3,4-difluoro-benzamide hydrochloride] |
| > 200 | CN(C)c1cc(N[C@H]2CC[C@@H](CNC(=O)c3cccnc3Oc3ccccc3)CC2)nc2ccccc12 [Example 3118, N-[cis-4-(4-Dimethylamino-quinolin-2-ylamino)-cyclohexylmethyl]-2-phenoxy-nicotinamide hydrochloride] |
| < 50 | Cc1cnc(N[C@H]2CC[C@@H](NC(=O)c3ccc(F)c(F)c3)CC2)nc1N(C)C [Example 3119, N-[cis-4-(4-Dimethylamino-5-methyl-pyrimidin-2-ylamino)-cyclohexyl]-3,4-difluoro-benzamide hydrochloride] |
| < 50 | Cc1cnc(N[C@H]2CC[C@@H](NC(=O)c3cccnc3Oc3ccccc3)CC2)nc1N(C)C [Example 3120, N-[cis-4-(4-Dimethylamino-5-methyl-pyrimidin-2-ylamino)-cyclohexyl]-2-phenoxy-nicotinamide hydrochloride] |
| < 50 | Cc1cccc(C(=O)N[C@H]2CC[C@@H](Nc3ncc(C)c(N(C)C)n3)CC2)c1 [Example 3121, N-[cis-4-(4-Dimethylamino-5-methyl-pyrimidin-2-ylamino)-cyclohexyl]-3-methyl-benzamide hydrochloride] |
| < 50 | COc1cccc(C(=O)N[C@H]2CC[C@@H](Nc3ncc(C)c(N(C)C)n3)CC2)c1 [Example 3122, N-[cis-4-(4-Dimethylamino-5-methyl-pyrimidin-2-ylamino)-cyclohexyl]-3-methoxy-benzamide hydrochloride] |
| < 50 | Cc1cnc(N[C@H]2CC[C@@H](NC(=O)c3cccnc3Oc3ccc(F)cc3)CC2)nc1N(C)C [Example 3123, N-[cis-4-(4-Dimethylamino-5-methyl-pyrimidin-2-ylamino)-cyclohexyl]-2-(4-fluoro-phenoxy)-nicotinamide hydrochloride] |
| < 50 | Cc1cnc(N[C@H]2CC[C@@H](NC(=O)c3cccnc3Oc3ccccc3Br)CC2)nc1N(C)C [Example 3124, 2-(2-Bromo-phenoxy)-N-[cis-4-(4-dimethylamino-5-methyl-pyrimidin-2-ylamino)-cyclohexyl]-nicotinamide hydrochloride] |
| < 50 | Cc1cnc(N[C@H]2CC[C@@H](CNC(=O)Nc3cccc(Cl)c3Cl)CC2)nc1N(C)C [Example 3125, 1-(2,3-Dichloro-phenyl)-3-[cis-4-(4-dimethylamino-5-methyl-pyrimidin-2-ylamino)-cyclohexylmethyl]-urea hydrochloride] |
| < 50 | Cc1cc(N(C)C)nc(N[C@H]2CC[C@@H](NC(=O)c3cccnc3Oc3ccccc3)CC2)n1 [Example 3126, N-[cis-4-(4-Dimethylamino-6-methyl-pyrimidin-2-ylamino)-cyclohexyl]-2-phenoxy-nicotinamide hydrochloride] |
| < 50 | Cc1cc(N(C)C)nc(N[C@H]2CC[C@@H](NC(=O)c3ccc(F)c(F)c3)CC2)n1 [Example 3127, N-[cis-4-(4-dimethylamino-C-methyl-pyrimidin-2-ylamino)-cyclohexyl]-3,4-difluoro-benzamide hydrochloride] |
| < 50 | Cc1cc(N(C)C)nc(N[C@H]2CC[C@@H](NC(=O)c3cccc(Cl)c3)CC2)n1 [Example 3128, 3-Chloro-N-[cis-4-(4-dimethylamino-6-methyl-pyrimidin-2-ylamino)-cyclohexyl]-benzamide hydrochloride] |
| 50 to 200 | CN(C)c1ccnc(N[C@H]2CC[C@@H](NC(=O)c3cccnc3Oc3ccccc3)CC2)n1 [Example 3129, N-[cis-4-(4-Dimethylamino-pyrimidin-2-ylamino)-cyclohexyl]-2-phenoxy-nicotinamide hydrochloride] |
| > 200 | O=C(N[C@H]1CC[C@@H](Nc2nccc(C(F)(F)F)n2)CC1)c1ccc(F)c(F)c1 [Example 3130, 3,4-Difluoro-N-[cis-4-(4-trifluoromethyl-pyrimidin-2-yl)amino-cyclohexyl]-benzamide hydrochloride] |
| > 200 | COc1ccnc(N[C@H]2CC[C@@H](NC(=O)c3ccc(F)c(F)c3)CC2)n1 [Example 3131, 3,4-Difluoro-N-[cis-4-(4-methoxy-pyrimidin-2-ylamino)-cyclohexyl]-benzamide hydrochloride] |
| > 200 | COc1cc(OC)nc(N[C@H]2CC[C@@H](NC(=O)c3ccc(F)c(F)c3)CC2)n1 [Example 3132, N-[cis-4-(4,6-Dimethoxy-pyrimidin-2-ylamino)-cyclohexyl]-3,4-difluoro-benzamide hydrochloride] |
| > 200 | O=C(N[C@H]1CC[C@@H](Nc2nccc(C(F)(F)F)n2)CC1)c1cccnc1Oc1ccccc1 [Example 3133, 2-Phenoxy-N-[cis-4-(4-trifluoromethyl-pyrimidin-2-yl)-amino-cyclohexyl]-nicotinamide hydrochloride] |
| > 200 | COc1ccnc(N[C@H]2CC[C@@H](NC(=O)c3cccnc3Oc3ccccc3)CC2)n1 [Example 3134, N-[cis-4-(4-Methoxy-pyrimidin-2-ylamino)-cyclohexyl]-2-phenoxy-nicotinamide hydrochloride] |

| IC50 [nM] | SMILES |
| --- | --- |
| > 200 | COc1cc(OC)nc(N[C@H]2CC[C@@H](NC(=O)c3cccnc3Oc3ccccc3)CC2)n1 [Example 3135, N-[cis-4-(4,6-Dimethoxy-pyrimidin-2-ylamino)-cyclohexyl]-2-phenoxy-nicotinamide hydrochloride] |
| > 200 | CN(C)c1nc(N[C@H]2CC[C@@H](NC(=O)c3cccnc3Oc3ccccc3)CC2)ncc1-c1ccccc1 [Example 3136, N-[cis-4-(4-Dimethylamino-5-phenyl-pyrimidin-2-ylamino)-cyclohexyl]-2-phenoxy-nicotinamide hydrochloride] |
| 50 to 200 | CN(C)N(c1ncc(Cl)cn1)[C@H]1CC[C@@H](NC(=O)c2cccnc2Oc2ccccc2)CC1 [Example 3137, N-[cis-4-(5-Chloro-dimethylamino-pyrimidin-2-ylamino)-cyclohexyl]-2-phenoxy-nicotinamide hydrochloride] |
| 50 to 200 | CN(C)c1nc(N[C@H]2CC[C@@H](NC(=O)c3ccc(F)c(F)c3)CC2)ncc1-c1ccccc1 [Example 3138, N-[cis-4-(4-Dimethylamino-5-phenyl-pyrimidin-2-ylamino)-cyclohexyl]-3,4-difluoro-benzamide hydrochloride] |
| 50 to 200 | CN(C)c1nc(N[C@H]2CC[C@@H](NC(=O)c3ccc(F)c(F)c3)CC2)ncc1Cl [Example 3139, N-[cis-4-(5-Chloro-4-dimethylamino-pyrimidin-2-ylamino)-cyclohexyl]-3,4-difluoro-benzamide hydrochloride] |
| 50 to 200 | CN(C)c1nc(N[C@H]2CC[C@@H](NC(=O)c3cccnc3Oc3ccccc3)CC2)ncc1F [Example 3140, N-[cis-4-(4-Dimethylamino-5-fluoro-pyrimidin-2-ylamino)-cyclohexyl]-2-phenoxy-nicotinamide hydrochloride] |
| 50 to 200 | CN(C)c1nc(N[C@H]2CC[C@@H](NC(=O)c3cccnc3Oc3ccccc3)CC2)ncc1Br [Example 3141, N-[cis-4-(5-Bromo-4-dimethylamino-pyrimidin-2-ylamino)-cyclohexyl]-2-phenoxy-nicotinamide hydrochloride] |
| > 200 | Cc1cc(C)nc(N[C@H]2CC[C@@H](NC(=O)c3ccc(F)c(F)c3)CC2)n1 [Example 3142, N-[cis-4-(4,6-Dimethyl-pyrimidin-2-ylamino)-cyclohexyl]-3,4-difluoro-benzamide hydrochloride] |
| > 200 | Cc1cc(C)nc(N[C@H]2CC[C@@H](NC(=O)c3cccnc3Oc3ccccc3)CC2)n1 [Example 3143, N-[cis-4-(4,6-Dimethyl-pyrimidin-2-ylamino)-cyclohexyl]-2-phenoxy-nicotinamide hydrochloride] |
| > 200 | O=C(N[C@H]1CC[C@@H](Nc2ncccn2)CC1)c1ccc(F)c(F)c1 [Example 3144, 3,4-Difluoro-N-[cis-4-(pyrimidin-2-ylamino)-cyclohexyl]-benzamide hydrochloride] |
| > 200 | CN(C)c1ccnc(N[C@H]2CC[C@@H](CNC(=O)c3cccnc3Oc3ccccc3)CC2)n1 [Example 3145, N-[cis-4-(4-Dimethylamino-pyrimidin-2-ylamino)-cyclohexylmethyl]-2-phenoxy-nicotinamide hydrochloride] |
| < 50 | O=C(N[C@H]1CC[C@@H](Nc2ccc3ccccc3n2)CC1)c1cccc(O)c1 [Example 3146, 3-Hydroxy-N-[cis-4-(quinolin-2-ylamino)-cyclohexyl]-benzamide hydrochloride] |
| 50 to 200 | COC(=O)c1cccc(C(=O)N[C@H]2CC[C@@H](Nc3ccc4ccccc4n3)CC2)c1 [Example 3147, N-[cis-4-(Quinolin-2-ylamino)-cyclohexyl]-isophthalamic acid methyl ester hydrochloride] |
| > 200 | O=C(N[C@H]1CC[C@@H](Nc2ccc3ccccc3n2)CC1)c1cc(C(F)(F)F)cc(C(F)(F)F)c1 [Example 3148, N-[cis-4-(Quinolin-2-ylamino)-cyclohexyl]-3,5-bis-trifluoromethyl-benzamide hydrochloride] |
| 50 to 200 | O=C(N[C@H]1CC[C@@H](Nc2ccc3ccccc3n2)CC1)c1cccc(OC(F)(F)F)c1 [Example 3149, N-[cis-4-(Quinolin-2-ylamino)-cyclohexyl]-3-trifluoromethoxy-benzamide hydrochloride] |
| > 200 | O=C(O)c1cccc(C(=O)N[C@H]2CC[C@@H](Nc3ccc4ccccc4n3)CC2)c1 [Example 3150, N-[cis-4-(Quinolin-2-ylamino)-cyclohexyl]-isophthalamic acid] |
| < 50 | CCN(CC(=O)N[C@H]1CC[C@@H](Nc2ccc3ccccc3n2)CC1)c1ccccc1 [Example 3151, C-(Ethyl-phenyl-amino)-N-[cis-4-(quinolin-2-ylamino)-cyclohexyl]-acetamide dihydrochloride] |
